Experiments:
Format in all cases: in vivo
[1] = test system: Plutella xylostella; assay: Plutella xylostella (diamond back moth), artificial diet; conditions: 120 h, application rate 200 ppm, L2 larvae, 5 days after infestation, read-out: effect in at least one of the two categories (mortality or growth inhibition)
Experimental: 24-well microtiter plates with artificial diet were treated with aqueous test solutions prepared from 10'000 ppm DMSO stock solutions by pipetting. After drying, the plates were infested with L2 larvae (10 to 15 per well). The samples were assessed for mortality and growth inhibition in comparison to untreated samples 5 days after infestation.
(§1) The following compounds gave an effect of at least 80% in at least one of the two categories (mortality or growth inhibition) at an application rate of 200 ppm: […]

[2] = test system: Spodoptera littoralis; assay: Spodoptera littoralis (Egyptian cotton leaf worm), sprayed cotton leaf discs; conditions: foliar, 72 h, application rate 200 ppm, L1 larvae, 3 days after infestation, read-out: control (mortality, anti-feeding effect, growth inhibition)
Experimental: Cotton leaf discs were placed onto agar in 24-well microtiter plates and sprayed with aqueous test solutions prepared from 10'000 ppm DMSO stock solutions. After drying the leaf discs were infested with five L1 larvae. The samples were assessed for mortality, anti-feeding effect, and growth inhibition in comparison to untreated samples 3 days after infestation. Control of Spodoptera littoralis by a test sample is given when at least one of the categories mortality, anti-feedant effect, and growth inhibition is higher than the untreated sample.

[3] = test system: Euschistus heros; assay: Euschistus heros (neotropical brown stink bug), sprayed soybean leaves; conditions: 120 h, application rate 200 ppm, N2 nymphs, 5 days after infestation, read-out: effect in at least one of the two categories (mortality or growth inhibition)
Experimental: Soybean leaves on agar in 24-well microtiter plates were sprayed with aqueous test solutions prepared from 10'000 ppm DMSO stock solutions. After drying the leaves were infested with N2 nymphs. The samples were assessed for mortality and growth inhibition in comparison to untreated samples 5 days after infestation.
as §1

[4] = test system: Diabrotica balteata; assay: Diabrotica balteata (corn root worm), sprayed maize sprouts; conditions: 96 h, application rate 200 ppm, L2 larvae, 4 days after infestation, read-out: effect in at least one of the two categories (mortality or growth inhibition)
Experimental: Maize sprouts placed onto an agar layer in 24-well microtiter plates were treated with aqueous test solutions prepared from 10'000 ppm DMSO stock solutions by spraying. After drying, the plates were infested with L2 larvae (6 to 10 per well). The samples were assessed for mortality and growth inhibition in comparison to untreated samples 4 days after infestation.
as §1

[5] = test system: Tetranychus urticae; assay: Tetranychus urticae (two-spotted spider mite): feeding/contact activity; conditions: 192 h, application rate 200 ppm, mixed population (mobile stages), 8 days after infestation, read-out: mortality
Experimental: Bean leaf discs on agar in 24-well microtiter plates were sprayed with aqueous test solutions prepared from 10'000 ppm DMSO stock solutions. After drying the leaf discs were infested with a mite population of mixed ages. The samples were assessed for mortality on mixed population (mobile stages) 8 days after infestation.

[6] = test system: Thrips tabaci; assay: Thrips tabaci (onion thrips): feeding/contact activity; conditions: 144 h, application rate 200 ppm, Thrips population of mixed ages, 6 days after infestation, read-out: mortality
Experimental: Sunflower leaf discs were placed on agar in 24-well microtiter plates and sprayed with aqueous test solutions prepared from 10'000 ppm DMSO stock solutions. After drying the leaf discs were infested with a Thrips population of mixed ages. The samples were assessed for mortality 6 days after infestation.

Cc1cc(C2=NO[C@@](c3cc(Cl)c(F)c(Cl)c3)(C(F)(F)F)C2)ccc1C(=O)NC1CON(S(=O)(=O)c2cccs2)C1 (stereo partly drawn) [Compound A9]
≥ 80%: percent effect (mortality or growth inhibition) at 200 ppm [1] | mortality at 200 ppm [2] | percent effect (mortality or growth inhibition) at 200 ppm [3] | percent effect (mortality or growth inhibition) at 200 ppm [4] | mortality at 200 ppm [5] | mortality at 200 ppm [6]

Cc1cc(C2=NO[C@](c3cc(Cl)cc(Cl)c3)(C(F)(F)F)C2)ccc1C(=O)N[C@H]1CON(S(=O)(=O)NC2(C#N)CC2)C1 [Compound A167]
≥ 80%: percent effect (mortality or growth inhibition) at 200 ppm [1] | mortality at 200 ppm [2] | percent effect (mortality or growth inhibition) at 200 ppm [3] | percent effect (mortality or growth inhibition) at 200 ppm [4] | mortality at 200 ppm [5] | mortality at 200 ppm [6]

Cc1cc(C2=NO[C@@](c3cc(Cl)c(F)c(Cl)c3)(C(F)(F)F)C2)ccc1C(=O)NC1CON(S(=O)(=O)N(C)S(C)(=O)=O)C1 (stereo partly drawn) [Compound A92]
≥ 80%: percent effect (mortality or growth inhibition) at 200 ppm [1] | mortality at 200 ppm [2] | percent effect (mortality or growth inhibition) at 200 ppm [3] | percent effect (mortality or growth inhibition) at 200 ppm [4] | mortality at 200 ppm [5] | mortality at 200 ppm [6]

Cc1cc(C2=NOC(c3cccc(C(F)(F)F)c3)(C(F)(F)F)C2)ccc1C(=O)NC1CON(S(C)(=O)=O)C1 (stereo not drawn) [Compound A60]
≥ 80%: percent effect (mortality or growth inhibition) at 200 ppm [1] | mortality at 200 ppm [2] | percent effect (mortality or growth inhibition) at 200 ppm [3] | percent effect (mortality or growth inhibition) at 200 ppm [4] | mortality at 200 ppm [5] | mortality at 200 ppm [6]

Cc1cc(C2=NO[C@](c3cc(Cl)c(F)c(Cl)c3)(C(F)(F)F)C2)ccc1C(=O)N[C@H]1CON(SC(Cl)(Cl)Cl)C1 [Compound A227, 4-[(5R)-5-(3,5-dichloro-4-fluorophenyl)-5-(trifluoromethyl)-4H-1,2-oxazol-3-yl]-2-methyl-N-[(4R)-2-(trichloromethylsulfanyl)-1,2-oxazolidin-4-yl]benzamide]
≥ 80%: percent effect (mortality or growth inhibition) at 200 ppm [1] | mortality at 200 ppm [2] | percent effect (mortality or growth inhibition) at 200 ppm [3] | percent effect (mortality or growth inhibition) at 200 ppm [4] | mortality at 200 ppm [5] | mortality at 200 ppm [6]

Cc1cc(C2=NO[C@@](c3cc(Cl)cc(Cl)c3)(C(F)(F)F)C2)ccc1C(=O)N[C@@H]1CON(S(=O)(=O)CC(=O)N(C)C)C1 [Compound A202, 4-[(5S)-5-(3,5-dichlorophenyl)-5-(trifluoromethyl)-4H-1,2-oxazol-3-yl]-N-[(4S)-2-[2-(dimethylamino)-2-oxoethyl]sulfonyl-1,2-oxazolidin-4-yl]-2-methylbenzamide]
≥ 80%: percent effect (mortality or growth inhibition) at 200 ppm [1] | mortality at 200 ppm [2] | percent effect (mortality or growth inhibition) at 200 ppm [3] | percent effect (mortality or growth inhibition) at 200 ppm [4] | mortality at 200 ppm [5] | mortality at 200 ppm [6]

CCOC(=O)CN(C)S(=O)(=O)N1CC(NC(=O)c2ccc(C3=NO[C@@](c4cc(Cl)c(Cl)c(Cl)c4)(C(F)(F)F)C3)cc2C)CO1 (stereo partly drawn) [Compound A89, ethyl 2-[methyl-[4-[[2-methyl-4-[(5S)-5-(3,4,5-trichlorophenyl)-5-(trifluoromethyl)-4H-isoxazol-3-yl]benzoyl]amino]isoxazolidin-2-yl]sulfonyl-amino]acetate]
≥ 80%: percent effect (mortality or growth inhibition) at 200 ppm [1] | mortality at 200 ppm [2] | percent effect (mortality or growth inhibition) at 200 ppm [3] | percent effect (mortality or growth inhibition) at 200 ppm [4] | mortality at 200 ppm [5] | mortality at 200 ppm [6]

Cc1cc(C2=NO[C@](c3cc(Cl)c(F)c(Cl)c3)(C(F)(F)F)C2)ccc1C(=O)N[C@H]1CON(S(=O)(=O)CC(F)F)C1 [Compound A225, 4-[(5R)-5-(3,5-dichloro-4-fluorophenyl)-5-(trifluoromethyl)-4H-1,2-oxazol-3-yl]-N-[(4R)-2-(2,2-difluoroethylsulfonyl)-1,2-oxazolidin-4-yl]-2-methylbenzamide]
≥ 80%: percent effect (mortality or growth inhibition) at 200 ppm [1] | mortality at 200 ppm [2] | percent effect (mortality or growth inhibition) at 200 ppm [3] | percent effect (mortality or growth inhibition) at 200 ppm [4] | mortality at 200 ppm [5] | mortality at 200 ppm [6]

Cc1cc(C2=NO[C@](c3cc(Cl)c(F)c(Cl)c3)(C(F)(F)F)C2)ccc1C(=O)N[C@H]1CON(S(=O)(=O)CC#N)C1 [Compound A163]
≥ 80%: percent effect (mortality or growth inhibition) at 200 ppm [1] | mortality at 200 ppm [2] | percent effect (mortality or growth inhibition) at 200 ppm [3] | percent effect (mortality or growth inhibition) at 200 ppm [4] | mortality at 200 ppm [5] | mortality at 200 ppm [6]

Cc1cc(C2=NO[C@@](c3cc(Cl)cc(Cl)c3)(C(F)(F)F)C2)ccc1C(=O)N[C@@H]1CON(S(=O)(=O)NCC(F)(F)F)C1 [Compound A194]
≥ 80%: percent effect (mortality or growth inhibition) at 200 ppm [1] | mortality at 200 ppm [2] | percent effect (mortality or growth inhibition) at 200 ppm [3] | percent effect (mortality or growth inhibition) at 200 ppm [4] | mortality at 200 ppm [5] | mortality at 200 ppm [6]

Cc1cc(C2=NO[C@@](c3cc(Cl)c(Cl)c(Cl)c3)(C(F)(F)F)C2)ccc1C(=O)N[C@H]1CON(S(=O)(=O)CC(F)(F)F)C1 [Compound A221, 2-methyl-4-[(5S)-5-(3,4,5-trichlorophenyl)-5-(trifluoromethyl)-4H-1,2-oxazol-3-yl]-N-[(4R)-2-(2,2,2-trifluoroethylsulfonyl)-1,2-oxazolidin-4-yl]benzamide]
≥ 80%: percent effect (mortality or growth inhibition) at 200 ppm [1] | mortality at 200 ppm [2] | percent effect (mortality or growth inhibition) at 200 ppm [3] | percent effect (mortality or growth inhibition) at 200 ppm [4] | mortality at 200 ppm [5] | mortality at 200 ppm [6]

Cc1cc(C2=NO[C@](c3cc(Cl)c(F)c(Cl)c3)(C(F)(F)F)C2)ccc1C(=O)N[C@@H]1CON(SC(F)(F)F)C1 [Compound A224, 4-[(5R)-5-(3,5-dichloro-4-fluorophenyl)-5-(trifluoromethyl)-4H-1,2-oxazol-3-yl]-2-methyl-N-[(4S)-2-(trifluoromethylsulfanyl)-1,2-oxazolidin-4-yl]benzamide]
≥ 80%: percent effect (mortality or growth inhibition) at 200 ppm [1] | mortality at 200 ppm [2] | percent effect (mortality or growth inhibition) at 200 ppm [3] | percent effect (mortality or growth inhibition) at 200 ppm [4] | mortality at 200 ppm [5] | mortality at 200 ppm [6]

Cc1cc(C2=NO[C@@](c3cc(Cl)c(F)c(Cl)c3)(C(F)(F)F)C2)ccc1C(=O)N[C@@H]1CON(S(=O)(=O)CC(=O)NO)C1 [Compound A203, 4-[(5S)-5-(3,5-dichloro-4-fluorophenyl)-5-(trifluoromethyl)-4H-1,2-oxazol-3-yl]-N-[(4S)-2-[2-(hydroxyamino)-2-oxoethyl]sulfonyl-1,2-oxazolidin-4-yl]-2-methylbenzamide]
≥ 80%: percent effect (mortality or growth inhibition) at 200 ppm [1] | mortality at 200 ppm [2] | percent effect (mortality or growth inhibition) at 200 ppm [3] | percent effect (mortality or growth inhibition) at 200 ppm [4] | mortality at 200 ppm [5] | mortality at 200 ppm [6]

Reference: patent US10588317B2, “Isoxazoline-substituted benzamides and analogues as insecticides” (priority 2015, dated 2020)
